Data: US7485657B2, “Anti-cytokine heterocyclic compounds” (Boehringer Ingelheim Pharmaceuticals, Inc., priority 2004, dated 2009)
Where a name gives a salt, the structure may show the parent alone.

Question: With CCOC(=O)c1cc(N)n(-c2cc(C(=O)Nc3cc(C(C)(C)C)cc(NS(C)(=O)=O)c3OC)ccc2C)n1 (as salt: TFA) [Example 1, 5-amino-1-[5-(5-tert-butyl-3-methanesulfonylamino-2-methoxy-phenylcarbamoyl)-2-methyl-phenyl]-1H-pyrazole-3-carboxylic acid ethyl ester] as the molecule, how does the melting point read?
Answer: 104 to 111 °C (dec.)

Question: With CCOC(=O)c1cnn(-c2cc(C(=O)Nc3cc(C(C)(C)C)cc(NS(C)(=O)=O)c3OC)ccc2C)c1 [Example 2, 1-[5-(5-tert-butyl-3-methanesulfonylamino-2-methoxy-phenylcarbamoyl)-2-methyl-phenyl]-1H-pyrazole-4-carboxylic acid ethyl ester] as the molecule, how does the melting point read?
Answer: 125 to 130 °C

Question: With COc1c(NC(=O)c2ccc(C)c(-n3cc(C(=O)NCc4cccnc4)cn3)c2)cc(C(C)(C)C)cc1NS(C)(=O)=O [Example 4, 1-[5-(5-tert-Butyl-3-methanesulfonylamino-2-methoxy-phenylcarbamoyl)-2-methyl-phenyl]-1H-pyrazole-4-carboxylic acid (pyridin-3-ylmethyl)-amide] as the molecule, how does the melting point read?
Answer: 127 to 133 °C
